# Columns and labels:
# [1] = Extrapolation of rat rectal plasma levels to humans on a body surface area basis; details: extrapolated from rat rectal data
# Experimental: In this study, idronoxil was given to rats at a dose of 10 mg/kg body weight, yielding a plasma concentration of about 35 to 40 ng/mL up to 8 hours from a single rectal administration. This dosage equates (on a body surface area basis) to a dose in humans of about 2 mg/kg BW. Thus, a blood level range of 20-400 ng/mL could be achieved in humans with a dosage range of 1-20 mg/kg BW, and the preferred range of 80-160 ng/mL with a dosage range of 4-8 mg/kg BW.
# cancer cells = details: cited from earlier work
# [2] = cited from earlier work
smiles,measurement,setting,value
"Oc1ccc(C2=Cc3ccc(O)cc3OC2)cc1 [Idronoxil, 2H-1-Benzopyran-7-0,1,3-(4-hydroxyphenyl)]",blood level range that could be achieved in humans,[1]; dosage range of 1-20 mg/kg BW,20 to 400 ng/mL
same,blood level range that could be achieved in humans,[1]; dosage range of 4-8 mg/kg BW,80 to 160 ng/mL
same,concentration where it kills about 10% of the cancer cells (sensitising use),cancer cells; cancer cells in cell culture,50 to 300 ng/mL
same,concentration that kills 50% of cancer cells in cell culture (IC50),cancer cells; depending largely on the tumour type,0.2 to 1.2 µg/mL
same,direct cytotoxic or sensitising effect when drug added in a pulsatile manner,cancer cells; left in cancer cell culture for 2-3 hours and then removed,largely ineffective
same,plasma elimination half-life,[2]; bolus IV administration,short
same,time after administration at which free idronoxil is detected in plasma,"[2]; given orally, most patients",≤ 30 min
same,absolute oral bioavailability,[2]; given orally,low
same,blood levels readily attained,[2]; humans treated both orally and intravenously,50 µM
